# Experimental data as given in the kinase profiling compilation of Christmann-Franck et al. (2016).
# Where “and” joins values, the source holds several entries; their conditions need not be identical. Equal values may be shown once.
# Key:
# Test in all cases: radiometric filter-binding kinase assay, Kinase HotSpot
# Conditions in all cases: compound 0.5 µM; ATP 10 µM
# ACVRL1 (human) = ACVRL1 (human) (UniProt P37023)
# HCK (human) = HCK (human) (UniProt P08631)
# STK39 (human) = STK39 (human) (UniProt Q9UEW8)
# [1] = target: JAK1 JH1 catalytic (human) (UniProt P23458)
# LYN (human) = LYN (human) (UniProt P07948)
# MAP3K14 (human) = MAP3K14 (human) (UniProt Q99558)
# CDK6 CCND3 (human) = CDK6 CCND3 (human) (UniProt P30281+Q00534)
# Chain of CDK6 CCND3 (human) (P30281 whole entry, looked up): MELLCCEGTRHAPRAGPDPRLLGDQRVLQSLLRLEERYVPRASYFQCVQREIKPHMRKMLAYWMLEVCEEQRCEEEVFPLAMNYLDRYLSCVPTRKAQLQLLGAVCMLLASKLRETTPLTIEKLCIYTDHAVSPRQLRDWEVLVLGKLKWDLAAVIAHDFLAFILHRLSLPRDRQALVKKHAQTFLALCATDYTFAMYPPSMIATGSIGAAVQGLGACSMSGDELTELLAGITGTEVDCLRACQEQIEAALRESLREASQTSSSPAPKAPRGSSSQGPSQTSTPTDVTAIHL
# Chain of CDK6 CCND3 (human) (Q00534 whole entry, looked up): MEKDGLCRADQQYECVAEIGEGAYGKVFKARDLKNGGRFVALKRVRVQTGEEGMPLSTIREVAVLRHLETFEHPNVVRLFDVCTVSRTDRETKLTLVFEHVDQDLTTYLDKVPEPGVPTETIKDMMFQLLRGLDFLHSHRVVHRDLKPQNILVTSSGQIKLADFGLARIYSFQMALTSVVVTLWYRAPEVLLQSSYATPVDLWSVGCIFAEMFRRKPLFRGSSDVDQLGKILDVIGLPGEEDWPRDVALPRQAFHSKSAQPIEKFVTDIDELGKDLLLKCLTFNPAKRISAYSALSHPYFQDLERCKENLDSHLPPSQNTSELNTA
# MARK4 (human) = MARK4 (human) (UniProt Q96L34)
# EPHA5 (human) = EPHA5 (human) (UniProt P54756)
# WNK3 (human) = WNK3 (human) (UniProt Q9BYP7)
# EGFR (human) = EGFR (human) (UniProt P00533)
# Chain of EGFR (human) (P00533 whole entry, looked up): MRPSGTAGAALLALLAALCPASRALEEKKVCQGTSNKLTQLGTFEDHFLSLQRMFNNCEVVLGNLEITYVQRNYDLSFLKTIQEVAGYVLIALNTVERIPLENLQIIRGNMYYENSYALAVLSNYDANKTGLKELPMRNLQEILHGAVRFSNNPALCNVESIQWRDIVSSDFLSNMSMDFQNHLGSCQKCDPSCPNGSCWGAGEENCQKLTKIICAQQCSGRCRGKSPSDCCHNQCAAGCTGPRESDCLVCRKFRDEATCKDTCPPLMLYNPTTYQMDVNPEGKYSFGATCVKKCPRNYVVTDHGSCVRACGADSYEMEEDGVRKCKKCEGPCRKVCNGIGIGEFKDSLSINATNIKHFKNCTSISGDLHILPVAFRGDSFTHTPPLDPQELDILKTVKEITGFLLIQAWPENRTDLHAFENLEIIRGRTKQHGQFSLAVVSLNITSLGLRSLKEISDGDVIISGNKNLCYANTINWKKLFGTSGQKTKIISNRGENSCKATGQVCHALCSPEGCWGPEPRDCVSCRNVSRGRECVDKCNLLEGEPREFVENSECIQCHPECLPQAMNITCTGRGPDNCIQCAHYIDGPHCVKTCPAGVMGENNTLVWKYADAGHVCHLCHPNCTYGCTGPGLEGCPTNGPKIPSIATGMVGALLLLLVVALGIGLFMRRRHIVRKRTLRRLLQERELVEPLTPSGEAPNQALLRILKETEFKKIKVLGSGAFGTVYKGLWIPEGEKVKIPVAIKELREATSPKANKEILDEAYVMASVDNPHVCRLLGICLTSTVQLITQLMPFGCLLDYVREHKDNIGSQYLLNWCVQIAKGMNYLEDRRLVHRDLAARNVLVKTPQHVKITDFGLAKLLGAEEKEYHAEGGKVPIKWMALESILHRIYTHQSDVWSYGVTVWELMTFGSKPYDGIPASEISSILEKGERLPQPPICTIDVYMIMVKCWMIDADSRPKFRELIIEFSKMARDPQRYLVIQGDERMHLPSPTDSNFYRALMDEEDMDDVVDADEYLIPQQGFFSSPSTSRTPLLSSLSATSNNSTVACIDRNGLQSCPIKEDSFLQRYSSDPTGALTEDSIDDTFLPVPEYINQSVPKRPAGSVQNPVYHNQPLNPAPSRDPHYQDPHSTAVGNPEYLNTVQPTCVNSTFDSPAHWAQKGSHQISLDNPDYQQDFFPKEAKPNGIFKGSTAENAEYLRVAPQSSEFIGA
# PKN2 (human) = PKN2 (human) (UniProt Q16513)
# SLK (human) = SLK (human) (UniProt Q9H2G2)
# Chain of SLK (human) (Q9H2G2 whole entry, looked up): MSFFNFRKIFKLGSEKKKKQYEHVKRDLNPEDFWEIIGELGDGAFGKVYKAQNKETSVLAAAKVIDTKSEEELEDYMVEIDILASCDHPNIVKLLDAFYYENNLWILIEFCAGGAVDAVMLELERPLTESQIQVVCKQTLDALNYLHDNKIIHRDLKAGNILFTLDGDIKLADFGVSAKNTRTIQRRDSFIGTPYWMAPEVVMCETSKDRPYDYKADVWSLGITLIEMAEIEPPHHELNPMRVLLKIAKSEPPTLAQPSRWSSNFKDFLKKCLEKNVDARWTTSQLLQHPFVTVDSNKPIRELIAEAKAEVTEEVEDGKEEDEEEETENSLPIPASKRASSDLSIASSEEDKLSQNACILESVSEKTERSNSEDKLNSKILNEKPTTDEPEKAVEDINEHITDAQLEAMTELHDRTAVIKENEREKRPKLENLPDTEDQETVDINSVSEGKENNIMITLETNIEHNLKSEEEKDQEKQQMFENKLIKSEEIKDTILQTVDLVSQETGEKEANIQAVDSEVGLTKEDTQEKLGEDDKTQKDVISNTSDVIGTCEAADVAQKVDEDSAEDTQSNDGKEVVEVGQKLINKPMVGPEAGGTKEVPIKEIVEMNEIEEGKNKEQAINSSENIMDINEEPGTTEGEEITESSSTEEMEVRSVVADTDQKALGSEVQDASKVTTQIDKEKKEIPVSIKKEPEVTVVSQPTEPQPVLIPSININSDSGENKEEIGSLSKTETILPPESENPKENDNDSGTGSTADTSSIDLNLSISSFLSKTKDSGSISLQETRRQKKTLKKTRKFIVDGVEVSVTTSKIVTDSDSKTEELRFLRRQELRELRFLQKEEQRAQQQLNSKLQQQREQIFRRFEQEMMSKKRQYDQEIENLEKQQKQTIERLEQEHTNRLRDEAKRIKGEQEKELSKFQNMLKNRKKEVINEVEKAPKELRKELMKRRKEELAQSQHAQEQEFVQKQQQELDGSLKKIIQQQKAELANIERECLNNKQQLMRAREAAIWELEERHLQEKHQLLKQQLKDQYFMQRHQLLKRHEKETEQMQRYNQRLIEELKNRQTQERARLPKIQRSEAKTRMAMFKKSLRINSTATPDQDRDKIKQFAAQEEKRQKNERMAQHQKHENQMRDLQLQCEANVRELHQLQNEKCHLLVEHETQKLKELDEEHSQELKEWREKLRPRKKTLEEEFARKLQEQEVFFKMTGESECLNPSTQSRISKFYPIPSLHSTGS
# MAP3K11 (human) = MAP3K11 (human) (UniProt Q16584)
# MAP3K3 (human) = MAP3K3 (human) (UniProt Q99759)
# AURKB (human) = AURKB (human) (UniProt Q96GD4)
# MAPKAPK3 (human) = MAPKAPK3 (human) (UniProt Q16644)
# Chain of MAPKAPK3 (human) (Q16644 whole entry, looked up): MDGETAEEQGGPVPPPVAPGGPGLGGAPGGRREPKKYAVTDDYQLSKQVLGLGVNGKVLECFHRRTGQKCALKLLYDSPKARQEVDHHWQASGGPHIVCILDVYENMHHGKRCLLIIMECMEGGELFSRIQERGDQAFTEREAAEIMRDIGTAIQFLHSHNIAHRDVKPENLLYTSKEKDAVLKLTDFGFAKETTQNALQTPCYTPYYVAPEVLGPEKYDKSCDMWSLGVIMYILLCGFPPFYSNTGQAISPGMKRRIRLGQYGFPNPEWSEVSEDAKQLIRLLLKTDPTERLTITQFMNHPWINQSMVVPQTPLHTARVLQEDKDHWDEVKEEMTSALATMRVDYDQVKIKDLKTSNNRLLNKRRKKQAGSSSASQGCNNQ
# PDGFRA (human) = PDGFRA (human) (UniProt P16234)
# PLK2 (human) = PLK2 (human) (UniProt Q9NYY3)
# TEK (human) = TEK (human) (UniProt Q02763)
# ABL1 (human) = ABL1 (human) (UniProt P00519)
# Chain of ABL1 (human) (P00519 whole entry, looked up): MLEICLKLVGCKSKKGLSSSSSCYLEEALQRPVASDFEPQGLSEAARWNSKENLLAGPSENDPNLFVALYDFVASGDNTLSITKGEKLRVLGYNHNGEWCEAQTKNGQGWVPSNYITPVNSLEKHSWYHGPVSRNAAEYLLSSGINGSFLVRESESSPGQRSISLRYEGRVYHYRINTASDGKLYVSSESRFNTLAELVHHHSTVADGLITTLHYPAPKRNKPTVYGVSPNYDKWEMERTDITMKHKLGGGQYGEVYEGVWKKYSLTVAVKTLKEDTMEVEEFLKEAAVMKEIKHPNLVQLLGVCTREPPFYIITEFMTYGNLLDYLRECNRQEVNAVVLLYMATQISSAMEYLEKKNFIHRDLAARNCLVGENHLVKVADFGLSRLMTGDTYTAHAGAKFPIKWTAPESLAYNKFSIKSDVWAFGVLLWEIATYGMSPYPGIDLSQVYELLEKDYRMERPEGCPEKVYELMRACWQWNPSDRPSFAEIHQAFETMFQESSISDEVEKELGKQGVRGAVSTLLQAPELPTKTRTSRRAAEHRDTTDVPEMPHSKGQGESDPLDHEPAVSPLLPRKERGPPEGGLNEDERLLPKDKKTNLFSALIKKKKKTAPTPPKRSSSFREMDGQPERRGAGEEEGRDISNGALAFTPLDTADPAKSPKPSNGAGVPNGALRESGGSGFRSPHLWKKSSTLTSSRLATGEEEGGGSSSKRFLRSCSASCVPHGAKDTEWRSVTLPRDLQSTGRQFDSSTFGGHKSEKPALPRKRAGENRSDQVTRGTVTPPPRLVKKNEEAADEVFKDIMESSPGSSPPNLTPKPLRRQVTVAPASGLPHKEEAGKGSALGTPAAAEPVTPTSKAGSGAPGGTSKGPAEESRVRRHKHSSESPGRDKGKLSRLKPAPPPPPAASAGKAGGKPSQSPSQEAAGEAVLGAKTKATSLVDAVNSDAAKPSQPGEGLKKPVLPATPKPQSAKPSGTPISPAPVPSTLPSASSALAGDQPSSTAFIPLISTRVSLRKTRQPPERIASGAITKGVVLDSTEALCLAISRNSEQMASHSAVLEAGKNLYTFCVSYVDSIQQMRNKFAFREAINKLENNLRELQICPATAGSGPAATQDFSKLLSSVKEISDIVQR
# MAP3K10 (human) = MAP3K10 (human) (UniProt Q02779)
# MAP4K5 (human) = MAP4K5 (human) (UniProt Q9Y4K4)
# TYRO3 (human) = TYRO3 (human) (UniProt Q06418)
# PRKD1 (human) = PRKD1 (human) (UniProt Q15139)
# PIM2 (human) = PIM2 (human) (UniProt Q9P1W9)
# EPHB2 (human) = EPHB2 (human) (UniProt P29323)
# CSNK1G3 (human) = CSNK1G3 (human) (UniProt Q9Y6M4)
# PRKCA (human) = PRKCA (human) (UniProt P17252)
# IGF1R (human) = IGF1R (human) (UniProt P08069)
# RPS6KB2 (human) = RPS6KB2 (human) (UniProt Q9UBS0)
# Chain of RPS6KB2 (human) (Q9UBS0 whole entry, looked up): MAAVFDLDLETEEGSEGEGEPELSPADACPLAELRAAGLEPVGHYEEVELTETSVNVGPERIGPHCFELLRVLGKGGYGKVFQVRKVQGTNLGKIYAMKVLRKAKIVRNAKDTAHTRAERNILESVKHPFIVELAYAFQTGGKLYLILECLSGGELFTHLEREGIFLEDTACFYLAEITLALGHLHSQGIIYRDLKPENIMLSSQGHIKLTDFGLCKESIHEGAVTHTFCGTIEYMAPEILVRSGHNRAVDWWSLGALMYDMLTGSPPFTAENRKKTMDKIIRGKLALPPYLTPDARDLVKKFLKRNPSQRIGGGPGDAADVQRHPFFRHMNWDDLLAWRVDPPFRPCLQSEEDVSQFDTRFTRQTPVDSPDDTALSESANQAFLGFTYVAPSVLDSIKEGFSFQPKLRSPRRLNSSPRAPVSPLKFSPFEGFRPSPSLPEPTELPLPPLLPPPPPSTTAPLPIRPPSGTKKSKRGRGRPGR
# STK4 (human) = STK4 (human) (UniProt Q13043)
# MAP3K9 (human) = MAP3K9 (human) (UniProt P80192)
# PRKG1 (human) = PRKG1 (human) (UniProt Q13976)
# RPS6KA4 KD2 (human) = RPS6KA4 KD2 (human) (UniProt O75676)
# TNK2 (human) = TNK2 (human) (UniProt Q07912)
# MAP4K2 (human) = MAP4K2 (human) (UniProt Q12851)
# CDK5 CDK5R1 p35 (human) = CDK5 CDK5R1 p35 (human) (UniProt Q00535+Q15078)
# SRPK1 (human) = SRPK1 (human) (UniProt Q96SB4)
# PRKCB2 (human) = PRKCB2 (human) (UniProt P05771)
# CAMK1D (human) = CAMK1D (human) (UniProt Q8IU85)
# CLK3 (human) = CLK3 (human) (UniProt P49761)
compound,measurement,setting,value
O=C(CCCc1ccc(-c2ccccc2F)cc1)Nc1ccc(O)cc1,residual activity,ACVRL1 (human),101%
same,residual activity,HCK (human),93.5%
same,residual activity,STK39 (human),95.4%
same,residual activity,[1],98.2%
same,residual activity,LYN (human),102% and 87.7%
same,residual activity,MAP3K14 (human),99.2%
same,residual activity,CDK6 CCND3 (human),103%
same,residual activity,MARK4 (human),124%
same,residual activity,EPHA5 (human),99%
same,residual activity,WNK3 (human),109%
same,residual activity,EGFR (human),87.9%
same,residual activity,PKN2 (human),89.8%
same,residual activity,SLK (human),102%
same,residual activity,MAP3K11 (human),101%
same,residual activity,MAP3K3 (human),108%
same,residual activity,AURKB (human),106%
same,residual activity,MAPKAPK3 (human),91%
same,residual activity,PDGFRA (human),96.5%
same,residual activity,PLK2 (human),102%
same,residual activity,TEK (human),101%
same,residual activity,ABL1 (human),101%
same,residual activity,MAP3K10 (human),88.8%
same,residual activity,MAP4K5 (human),94.1%
same,residual activity,TYRO3 (human),98.2%
same,residual activity,PRKD1 (human),98.4%
same,residual activity,PIM2 (human),115%
same,residual activity,EPHB2 (human),98.5%
same,residual activity,CSNK1G3 (human),104%
same,residual activity,PRKCA (human),100%
same,residual activity,IGF1R (human),106%
same,residual activity,RPS6KB2 (human),104%
same,residual activity,STK4 (human),95%
same,residual activity,MAP3K9 (human),100%
same,residual activity,PRKG1 (human),95.5% and 99.9%
same,residual activity,RPS6KA4 KD2 (human),103%
same,residual activity,TNK2 (human),99.2%
same,residual activity,MAP4K2 (human),104%
same,residual activity,CDK5 CDK5R1 p35 (human),92.5%
same,residual activity,SRPK1 (human),98.6%
same,residual activity,PRKCB2 (human),102%
same,residual activity,CAMK1D (human),122%
same,residual activity,CLK3 (human),124%
CCn1cnc2c(Nc3cccc(Cl)c3)nc(N[C@@H]3CCCC[C@@H]3N)nc21,residual activity,ACVRL1 (human),99.9%
same,residual activity,HCK (human),69.6%
same,residual activity,STK39 (human),106%
same,residual activity,[1],98.6%
same,residual activity,MAP3K14 (human),85.1%
same,residual activity,CDK6 CCND3 (human),76.9%
same,residual activity,MARK4 (human),95.5%
same,residual activity,EPHA5 (human),73.9%
same,residual activity,WNK3 (human),92%
same,residual activity,EGFR (human),98.1%
same,residual activity,PKN2 (human),90.3%
same,residual activity,SLK (human),71.4%
same,residual activity,MAP3K11 (human),77.6%
same,residual activity,MAP3K3 (human),103%
same,residual activity,AURKB (human),98.8%
same,residual activity,MAPKAPK3 (human),91.3%
same,residual activity,PDGFRA (human),100%
same,residual activity,PLK2 (human),95.8%
same,residual activity,TEK (human),99.9%
same,residual activity,ABL1 (human),94%
same,residual activity,MAP3K10 (human),92.9%
same,residual activity,MAP4K5 (human),91.1%
same,residual activity,TYRO3 (human),98.3%
same,residual activity,PRKD1 (human),90.8%
same,residual activity,PIM2 (human),111%
same,residual activity,EPHB2 (human),82.9%
same,residual activity,CSNK1G3 (human),45.9%
same,residual activity,PRKCA (human),68.2%
same,residual activity,IGF1R (human),51.8%
same,residual activity,RPS6KB2 (human),103%
same,residual activity,STK4 (human),91.3%
same,residual activity,MAP3K9 (human),54.9%
same,residual activity,PRKG1 (human),91.4% and 91.8%
same,residual activity,RPS6KA4 KD2 (human),88.2%
same,residual activity,TNK2 (human),92.4%
same,residual activity,MAP4K2 (human),87.4%
same,residual activity,CDK5 CDK5R1 p35 (human),13.2%
same,residual activity,SRPK1 (human),94.2%
same,residual activity,PRKCB2 (human),79.4%
same,residual activity,CAMK1D (human),96.7%
same,residual activity,CLK3 (human),99.8%
COc1cc2ncc(-c3ccccc3)nc2cc1OC,residual activity,ACVRL1 (human),95.8%
same,residual activity,HCK (human),96.9%
same,residual activity,STK39 (human),88%
same,residual activity,[1],91.5%
same,residual activity,LYN (human),90.4% and 96.9%
same,residual activity,MAP3K14 (human),115%
same,residual activity,CDK6 CCND3 (human),93.7%
same,residual activity,MARK4 (human),85.3%
same,residual activity,EPHA5 (human),99.9%
same,residual activity,WNK3 (human),97.5%
same,residual activity,EGFR (human),82.9%
same,residual activity,PKN2 (human),88.3%
same,residual activity,SLK (human),97.3%
same,residual activity,MAP3K11 (human),86.8%
same,residual activity,MAP3K3 (human),90.3%
same,residual activity,AURKB (human),74.4%
same,residual activity,MAPKAPK3 (human),86.7%
same,residual activity,PDGFRA (human),83.1%
same,residual activity,TEK (human),85.7%
same,residual activity,ABL1 (human),94.1%
same,residual activity,MAP3K10 (human),105%
same,residual activity,MAP4K5 (human),99.8%
same,residual activity,TYRO3 (human),100%
same,residual activity,PRKD1 (human),93.3%
same,residual activity,PIM2 (human),101%
same,residual activity,CSNK1G3 (human),104%
same,residual activity,PRKCA (human),103%
same,residual activity,IGF1R (human),91.1%
same,residual activity,RPS6KB2 (human),104%
same,residual activity,STK4 (human),96.3%
same,residual activity,MAP3K9 (human),85.4%
same,residual activity,PRKG1 (human),77.1% and 96.2%
same,residual activity,RPS6KA4 KD2 (human),85.4%
same,residual activity,TNK2 (human),93.2%
same,residual activity,MAP4K2 (human),99.2%
same,residual activity,CDK5 CDK5R1 p35 (human),95.8%
same,residual activity,SRPK1 (human),105%
same,residual activity,PRKCB2 (human),88.8%
same,residual activity,CAMK1D (human),96.6%
same,residual activity,CLK3 (human),90.1%
